# Read-outs that look alike come from different tables or passages of the source.
# Assays:
# [1] = system: permeability of blood brain barrier and infiltration of white blood cells to cerebrospinal fluid caused by arachidonic acid; assay: arachidonic acid-induced central nervous system inflammation (CSF volume and WBC counts via subarachnoid cannula); type: in vivo, rat
# Text: To investigate the role of leukotriene antagonists in the treatment of inflammation, a sensitive and quantitative method to measure inflammation for the central nervous system was developed. Important changes in the inflammatory process can be monitored, as both the permeability of blood brain barrier (BBB) and the infiltration of white blood cells (WBC) to cerebrospinal fluid (CSF) caused by arachidonic acid can be measured over time from the same experimental animal. In particular, the effect of the leukotriene C4 and D4 antagonist, pranlukast, was studied using this method. Changes in the inflammatory process of both the permeability of BBB and the infiltration of white blood cells (WBC) caused by administering arachidonic acid as a nociceptive stimulus were observed.
# Male rats, approximately 350-400 g, were anesthetized with sodium pentobarbital at a dose of 50 mg/kg intraperitoneally (i.p.). Animals were then placed in a stereotaxic unit. Fur from the top of the head to neck was shaved. The study area was disinfected with 70% ethanol followed by a 10% providone-iodine solution. Skin and muscle over the cervical cord were dissected until cervical vertebrae were exposed. A hole was made using a 23 G3/4 needle passing through the dura via the cisterna magna. One end of a 2-3 mm PE10 cannula (0.011 “I.D., 0.007” thick, 0.024″ O.D., 6.5 cm long) was inserted into the subarachnoid space at the cervical cord so as to avoid damage to neuronal tissue (FIG. 3). The cannula was fixed with cyanoacrylic glue to the peripheral tissue. The other end of PE10 was used for administration of a nociceptive stimulus, such as arachidonic acid (AA; 3.25 μg/2 μl) and subsequently for collecting cerebrospinal fluid (CSF) every thirty minutes thereafter during the 11-hour experimental period. The cannula filled with CSF immediately after the cannulation.
# Air was infused to inject AA to the subarachnoid space. The muscles and skin were closed with surgical staples. The rat was then removed from the stereotaxic unit and placed on a heat pad and continuously monitored.
# In the interaction study, the leukotriene C4 and D4 antagonist, pranlukast, was administered (490 mg/kg, i.p.) thirty minutes before administration of arachidonic acid (AA). If the effects of the anesthesia appeared to be wearing off, an additional 0.05-0.1 ml pentobarbital (50 mg/ml, i.p.) dose was administered. If at any time during the experiment, the animal appeared to be in pain or distress, the study was immediately stopped and the animal was euthanized.
# In the present study, the volume (μl) of cerebrospinal fluid (CSF) and white blood cell (WBC) counts in CSF was measured every thirty minutes for 11 hours from the same rat. One side of the cannula (PE10) was inserted into the subarachnoid space under pentobarbital anesthesia, avoiding neuronal damage (FIG. 3). If the brain tissue is damaged, the volume of CSF and WBC increases immediately without the administration of arachidonic acid. Since there are no WBC in the CSF in the normal rat, only rats that had no WBC in the CSF immediately after the cannulation were used. Another side of the cannula remained open and was used for the administration of nociceptive stimuli (arachidonic acid, LPS, dextran, etc.) and subsequently for collecting the CSF every thirty minutes during the experiment. The CSF volume was measured using a micropipette and WBC in the CSF were counted by means of a hemacytometer.
# [2] = in vivo; cited from earlier work
# [3] = system: dextran-induced rat paw edema; assay: dextran-induced rat paw edema; type: in vivo
# rat ischemia model = assay: rat ischemia model, reversible 30 minute occlusion of both carotid arteries followed by reperfusion; type: in vivo; settings: pre-treatment
# Procedure: One of 4-5 rats survived for one week when pranlukast (450 mg/kg i.p.) was administered 30 minutes before the occlusion.
# [4] = system: infiltration of WBC into the CSF caused by interleukin-6; assay: interleukin-6-induced infiltration of WBC into the CSF in the intact dog; type: in vivo; settings: pretreatment, three different doses
# Text: Additionally, increased infiltration of WBC into the CSF caused by interleukin-6 were inhibited by pretreatment of pranlukast (administered at three different doses) in the intact dog.
# [5] = system: capillary permeability and extravasation of white blood cells and tumor cells from the capillary; assay: interaction study: arachidonic acid-induced capillary permeability and extravasation into CSF (model of metastasis); type: in vivo, rat
# Procedure: (§1) To test for inhibition of metastasis, pranlukast is administered orally (instead of intraperitoneally as was done in Example 2) before intravenous injection of the cancer cells. Arachidonic acid (AA) is then administered to the subarachnoid space two hours after pranlukast administration. The volume of CSF, white blood cell counts and cancer cell counts in the CSF are measured every 30 minutes.
# (§2) Rats were anesthetized by sodium pentobarbital (50 mg/kg i.p.).
# (§3) A femoral vein was exposed and a polyethylene tube filled with 0.002% heparin in saline was inserted. The other end of the polyethylene tube was connected to a three way cock valve for the intravenous injection of cancer cells. The animal was then placed in a stereotaxic unit (Type SRS-6 produced by Narishige Scientific Instrument Lab). Fur from the top of the head to the neck was shaved. The study area was disinfected with 70% ethanol. Skin and muscle over the cervical vertebrae were exposed. A hole was made using an 18 G×1 ½ needle passing through the dura via the cisterna magna. One end (2-3 mm) of an SP10 tube (5-6 cm long) was inserted into the subarachnoid space. The cannula was fixed with cyanoacrylic glue to the peripheral tissue. The other end of the SP10 tube was used for administration of arachidonic acid (8.16 ng/2 μl of saline) and subsequently for collecting cerebrospinal fluid (CSF) every thirty minutes thereafter for 1-2 hours in the in vivo morphological study and for 8 hours in the interaction studies.
# As a capsule of Onon contains 112.5 mg of pranlukast, the powder from two capsules was stirred in 2.295 ml of deionized water with the electric mixer immediately before oral administration. The volume of administration of pranlukast was 5 ml/kg (dose=490 mg/kg).
# The number of cancer cells were prepared to 1/100 of the number of neutrophils in each rat using PBS. Because of body weight (400±50 g), the number of cancer cells were between 1.88×10^4 and 2.43×10^4 and the volume of administration of cancer cell was adjusted to 1 ml for each rat.
# Arachidonic acid was dissolved in saline and 816.25 ng/2 μl was administered for each rat.
# Three different treatments were administered as follows;
# 1st treatment was pranlukast (490 mg/kg p.o.) or deionized water (p.o.).
# 2nd treatment was with cancer cells or PBS
# 3rd treatment was with arachidonic acid or saline.
# The first treatment was administered 2 hours before arachidonic acid. The second treatment (cancer cells i.v.) was administered 2-3 minutes before arachidonic acid. Two canula in each animal to the femoral vein and to the subarachnoid space were inserted between the 1st treatment and 2nd treatment.
# The number on the right side of table corresponds to that of the figures for the results. Four rats were used for each group.
# (§4) The volume (μl) of CSF, WBC counts, and cancer cells counts was measured after the 3rd treatment for 8 hours.
# To analyze whether or not human cancer cells, as foreign substances, affect the immune system in rats, each parameter, i.e., white blood cells counts, tumor cells counts and CSF volume with rat cancer cells (RCN9) was compared with the corresponding parameters of COLO201, MKN 74, and QG56, respectively, using area under time action curves and analysis of variance (Dunnet). Probability value was p<0.05 to be significant.
# [6] = system: Colo 201 (colon cancer) cells; assay: interaction study with Colo201 cancer cells i.v.; type: in vivo, human
# Procedure: as §1
# (§5) Cultured human cancer cell lines, Colo 201 (colon cancer) and MKN 74 ([…]), and a cultured rat cancer cell line RCN9 were purchased from Health Science Research Resources Bank (Rinku-minamihama 2-11, Sennan-shi, Osaka, 590-0535, Japan). Human lung cancer cell line QG56 was a gift from Dr. Yukito Ichinose, Department of Laboratory Medicine, Kyusyu Cancer Center, Hukuoka, Japan. Cells were cultured at 37° C. and 5% CO2, in RPMI-1640 (SIGMA, MO, USA) supplemented with 5% fetal bovine serum, 2 mM L-glutamine (Gibco), 100 units penicillin, 100 μg/ml streptomycin (Gibco Invitrogen Corp., Grand Island, N.Y., USA).
# as §2
# as §3, with “The other end of the SP10 tube was used for administration of arachidonic acid (8.16 ng/2 μl of saline) and subsequently for collecting cerebrospinal fluid (CSF) every thirty minutes thereafter for 1-2 hours in the in vivo morphological study and for 8 hours in the interaction studies.” left out
# as §4
# [7] = system: MKN 74 (lung cancer) cells; assay: interaction study with MKN74 cancer cells i.v.; type: in vivo, human; settings: pranlukast-MKN74-arachidonic acid, 490 mg/kg p.o., rat
# Procedure: as §1, §5, §2
# as §3, with “The other end of the SP10 tube was used for administration of arachidonic acid (8.16 ng/2 μl of saline) and subsequently for collecting cerebrospinal fluid (CSF) every thirty minutes thereafter for 1-2 hours in the in vivo morphological study and for 8 hours in the interaction studies.” left out
# as §4
# MKN 74 cells = assay: interaction study with MKN74 cancer cells i.v.; type: in vivo, human; settings: pranlukast-MKN 74-saline
# Procedure: as §1, §5, §2
# as §3, with “The other end of the SP10 tube was used for administration of arachidonic acid (8.16 ng/2 μl of saline) and subsequently for collecting cerebrospinal fluid (CSF) every thirty minutes thereafter for 1-2 hours in the in vivo morphological study and for 8 hours in the interaction studies.” left out
# as §4
# [8] = system: lung cancer cell line QG56; assay: interaction study with QG56 cancer cells i.v.; type: in vivo, human
# Procedure: as §1, §5, §2
# as §3, with “The other end of the SP10 tube was used for administration of arachidonic acid (8.16 ng/2 μl of saline) and subsequently for collecting cerebrospinal fluid (CSF) every thirty minutes thereafter for 1-2 hours in the in vivo morphological study and for 8 hours in the interaction studies.” left out
# as §4
# [9] = system: RCN-9, a colon cancer cell line; assay: interaction study with RCN9 cancer cells i.v.; type: in vivo, rat
# Procedure: as §1, §5, §2
# as §3, with “The other end of the SP10 tube was used for administration of arachidonic acid (8.16 ng/2 μl of saline) and subsequently for collecting cerebrospinal fluid (CSF) every thirty minutes thereafter for 1-2 hours in the in vivo morphological study and for 8 hours in the interaction studies.” left out
# as §4
# rats [10] = settings: cited from earlier work
# mice = settings: cited from earlier work
# rats [11] = settings: cited from earlier work; remark: listed apart in the source
# [12] = 20 mg/kg p.o., cited from earlier work
# [13] = 490 mg/kg p.o., eight hours after arachidonic acid
# [14] = pranlukast (490 mg/kg p.o.)-PBS-arachidonic acid (816 ng/2 μl), FIG. 11
# [15] = pranlukast-Colo201-arachidonic acid, 490 mg/kg p.o., rat
# [16] = pranlukast-QG56-arachidonic acid, 490 mg/kg p.o., rat
# [17] = pranlukast-RCN9-arachidonic acid, 490 mg/kg p.o., rat
smiles,measurement,setting,value
"CCCCC/C=C\C/C=C\C/C=C\C/C=C\CCCC(=O)O [arachidonic acid, Arachidonic acid]",maximum CSF volume after administration,"[1]; arachidonic acid 3.2 μg/2 μl into subarachnoid space, collected every thirty minutes, rat",100 to 120 µL
same,CSF volume maintained for every thirty minutes,"[1]; arachidonic acid 3.2 μg/2 μl, during 4.0-5.0 hours post-administration",60 to 80 µL
same,time to peak / maximum CSF volume,"[1]; arachidonic acid into subarachnoid space, rat",≤ 3.5 h
CC(C)(O)c1ccccc1CC[C@@H](SCC1(CC(=O)O)CC1)c1cccc(/C=C/c2ccc3ccc(Cl)cc3n2)c1 [montelukast],passage of the blood-brain barrier,[2],"does not pass, or passes the blood-brain barrier at most at a very minimal level"
O=C(Nc1cccc2c(=O)cc(-c3nnn[nH]3)oc12)c1ccc(OCCCCc2ccccc2)cc1 [pranlukast],inhibition of dextran-induced paw edema,"[3]; about 490 mg/kg, administered intraperitoneally",completely inhibited
same,inhibition of dextran-caused paw edema,"[3]; about 490 mg/kg, administered orally (FIG. 2)",completely inhibited
same,inhibition of dextran-induced rat paw edema,[3]; dose dependence,inhibited by pranlukast in a dose-dependent fashion
same,inhibition of inflammation caused by arachidonic acid,"[1]; 450 mg/kg i.p., arachidonic acid 3.25 μg/2 μl",completely inhibits
same,inhibition of the increase of CSF volume,"[1]; 490 mg/kg i.p. thirty minutes before arachidonic acid (3.25 μg/2 μl) into the subarachnoid space, rat",completely inhibited
same,inhibition of the permeability of the brain capillary marked by WBC infiltration,"[1]; 490 mg/kg i.p. thirty minutes before arachidonic acid, rat",completely inhibited
same,survival,rat ischemia model,longer survival
same,increased infiltration of WBC into the CSF caused by interleukin-6,[4],inhibited
same,"area under the time action curve, CSF",[5]; [13],zero
same,"area under the time action curve, white blood cell counts",[5]; [13],zero
same,"area under the time action curve, tumor cell counts","[5]; 490 mg/kg p.o., eight hours after arachidonic acid, tumor cells i.v.",zero
same,extravasation of white blood cells caused by arachidonic acid,[5]; [14],inhibited
same,increased capillary permeability caused by arachidonic acid,[5]; [14],inhibited
same,effect of pranlukast by itself on tumor/WBC counts and CSF volume,"[5]; pranlukast-PBS-saline, 490 mg/kg p.o., no arachidonic acid",no effect
same,extravasation of tumor cells,[6]; [15],significantly inhibited
same,increasing capillary permeability,[6]; [15],significantly inhibited
same,effect when cancer cells present without arachidonic acid,[6]; pranlukast-Colo201-saline,did not have any effect
same,extravasation of tumor cells,[7],significantly inhibited
same,increasing capillary permeability,[7],significantly inhibited
same,effect when cancer cells present without arachidonic acid,MKN 74 cells,did not have any effect
same,extravasation of tumor cells,[8]; [16],significantly inhibited
same,increasing capillary permeability,[8]; [16],significantly inhibited
same,effect when cancer cells present without arachidonic acid,[8]; pranlukast-QG56-saline,did not have any effect
same,extravasation of tumor cells,[9]; [17],significantly inhibited
same,increasing capillary permeability,[9]; [17],significantly inhibited
same,effect when cancer cells present without arachidonic acid,[9]; pranlukast-RCN9-saline,did not have any effect
same,LD50,rats [10]; p.o.,> 2000 mg/kg
same,LD50,rats [10]; s.c.,> 2000 mg/kg
same,LD50,mice; p.o.,> 2000 mg/kg
same,LD50,mice; s.c.,> 2000 mg/kg
same,"behavior, changes in body weight, and food intake compared with control group","rats [11]; repeated administration 30, 100, 300, 1000 mg/kg/day p.o. for three months and six months",normal
same,urine examination and histopathological examinations,rats [11]; repeated administration,normal
same,"behavior, changes in body weight, and food intake compared with control group","rats [11]; single administration 30, 100, 300, 1000 mg/kg p.o.",normal
same,urine examination and histopathological examinations,rats [11]; single administration,normal
same,pranlukast in blood 24 hours after administration,[12]; 24 hours,no pranlukast was observed
same,time at which maximum blood concentration was attained,[12],within one hour
same,time the maximum blood concentration was maintained,[12],at least 5 hours
same,passage of the blood-brain barrier,[2],"does not pass, or passes the blood-brain barrier at most at a very minimal level"
COc1cc(C(=O)NS(=O)(=O)c2ccccc2C)ccc1Cc1cn(C)c2ccc(NC(=O)OC3CCCC3)cc12 [zafirlukast],passage of the blood-brain barrier,[2],"does not pass, or passes the blood-brain barrier at most at a very minimal level"
